Laboratory results taken from US9815796B2 (Merck Sharp & Dohme Corp., priority 2013, dated 2017).
Where two headings read alike, the source gives them in different places.

Tests used:
Rhesus PDE2A3 = Rhesus PDE2A3 (Macaca mulatta, UniProt B3VTJ2); test: PDE2 fluorescence polarization (IMAP FP) inhibition assay, rhesus enzyme; format: biochemical, rhesus macaque
Outline: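 Rhesus PDE2A3 came from lysate of transiently transfected AD293 cells, diluted to give 20% substrate conversion. Substrate was 50 nM FAM-cAMP with 1 uM cGMP activator in Tris pH 7.2/MgCl2 buffer, run 60 min at room temperature over 10-point 3-fold dilutions in 1% DMSO. Read-out was IMAP fluorescence polarization (mP) after ≥1 h binding.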

human PDE2A1 = human PDE2A1 (Homo sapiens (Human), UniProt O00408); test: IMAP FP PDE selectivity panel, human PDE2A1; format: biochemical
Outline: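 GST-tagged human PDE2A1 expressed in insect cells, run at room temperature for 60 min with 50 nM FAM-cAMP containing 1000 nM cGMP, pH 7.2 Tris/MgCl2 buffer. IMAP fluorescence polarization read after binding step.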

[1] = Rhesus PDE2, Lab A, read-out: Rhesus PDE2 Ki (nM) - Lab A
[2] = Human PDE2, Lab A, read-out: Human PDE2 Ki (nM) - Lab A
[3] = Human PDE2, Lab B, read-out: Human PDE2 Ki (nM) - Lab B

Chain of Rhesus PDE2A3 (B3VTJ2 1-941): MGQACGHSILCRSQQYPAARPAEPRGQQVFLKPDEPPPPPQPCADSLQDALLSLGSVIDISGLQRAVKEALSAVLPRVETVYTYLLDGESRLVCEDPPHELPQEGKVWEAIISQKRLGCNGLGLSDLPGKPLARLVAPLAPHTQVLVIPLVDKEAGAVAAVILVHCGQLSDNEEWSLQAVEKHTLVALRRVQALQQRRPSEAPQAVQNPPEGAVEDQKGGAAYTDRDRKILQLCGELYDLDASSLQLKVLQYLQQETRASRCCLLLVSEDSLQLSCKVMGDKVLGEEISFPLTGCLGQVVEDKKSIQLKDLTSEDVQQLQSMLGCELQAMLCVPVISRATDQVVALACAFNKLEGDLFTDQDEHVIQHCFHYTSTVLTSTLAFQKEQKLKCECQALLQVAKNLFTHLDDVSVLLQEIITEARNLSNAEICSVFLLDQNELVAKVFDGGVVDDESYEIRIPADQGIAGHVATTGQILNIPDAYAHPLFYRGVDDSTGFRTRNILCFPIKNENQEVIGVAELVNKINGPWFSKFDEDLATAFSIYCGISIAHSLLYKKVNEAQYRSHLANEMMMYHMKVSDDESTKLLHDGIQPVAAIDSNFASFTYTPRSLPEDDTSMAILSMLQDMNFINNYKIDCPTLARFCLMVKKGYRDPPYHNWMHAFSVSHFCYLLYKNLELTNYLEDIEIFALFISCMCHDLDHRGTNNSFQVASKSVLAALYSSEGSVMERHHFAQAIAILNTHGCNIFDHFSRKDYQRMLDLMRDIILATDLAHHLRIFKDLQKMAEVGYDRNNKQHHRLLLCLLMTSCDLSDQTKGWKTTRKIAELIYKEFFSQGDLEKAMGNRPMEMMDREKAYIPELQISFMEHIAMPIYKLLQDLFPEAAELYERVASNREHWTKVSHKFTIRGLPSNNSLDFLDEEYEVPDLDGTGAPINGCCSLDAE
Chain of human PDE2A1 (O00408 other isoform, or with tags, fused parts or gaps): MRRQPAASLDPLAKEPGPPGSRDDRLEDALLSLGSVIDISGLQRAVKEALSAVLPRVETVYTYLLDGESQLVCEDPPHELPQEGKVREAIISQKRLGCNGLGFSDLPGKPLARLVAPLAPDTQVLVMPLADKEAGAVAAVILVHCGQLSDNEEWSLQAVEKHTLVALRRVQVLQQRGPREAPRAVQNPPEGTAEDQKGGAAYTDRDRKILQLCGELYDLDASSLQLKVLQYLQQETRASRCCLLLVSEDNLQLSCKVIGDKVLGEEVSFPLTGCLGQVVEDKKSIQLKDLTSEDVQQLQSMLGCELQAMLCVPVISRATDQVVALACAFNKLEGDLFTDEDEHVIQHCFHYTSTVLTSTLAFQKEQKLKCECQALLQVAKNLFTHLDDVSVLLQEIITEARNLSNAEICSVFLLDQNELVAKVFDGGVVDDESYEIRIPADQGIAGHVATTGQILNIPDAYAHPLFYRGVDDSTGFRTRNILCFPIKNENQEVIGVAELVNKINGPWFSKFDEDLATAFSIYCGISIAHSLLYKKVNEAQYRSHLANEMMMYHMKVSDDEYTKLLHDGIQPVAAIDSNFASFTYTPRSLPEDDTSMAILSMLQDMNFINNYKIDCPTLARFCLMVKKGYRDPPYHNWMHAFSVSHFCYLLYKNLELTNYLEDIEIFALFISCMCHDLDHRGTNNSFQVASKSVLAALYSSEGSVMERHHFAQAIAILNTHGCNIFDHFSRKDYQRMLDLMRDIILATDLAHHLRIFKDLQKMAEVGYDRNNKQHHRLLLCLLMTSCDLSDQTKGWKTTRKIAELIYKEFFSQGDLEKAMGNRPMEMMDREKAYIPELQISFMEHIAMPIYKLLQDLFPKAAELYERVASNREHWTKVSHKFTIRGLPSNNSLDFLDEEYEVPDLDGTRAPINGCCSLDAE

SMILES	Ki (human PDE2A1; [3]) [nM]	also measured
COC(=O)C(NC(=O)c1cc(=O)[nH]c(C)n1)c1ccc(C(F)(F)F)cc1 (racemic) [Example 325, Methyl 2-(2-methyl-6-oxo-1,6-dihydropyrimidine-4-carboxamido)-2-(4-(trifluoromethyl)phenyl)-acetate]		Ki (Rhesus PDE2A3; [1]): 1100 nM; Ki (human PDE2A1; [2]): 687 nM
Cc1nc(C(=O)NC(C(=O)O)c2ccc(C(F)(F)F)cc2)cc(=O)[nH]1 (racemic) [Example 326, 2-(2-Methyl-6-oxo-1,6-dihydropyrimidine-4-carboxamido)-2-(4-(trifluoromethyl)phenyl)acetic acid]		Ki (Rhesus PDE2A3; [1]): 70 nM; Ki (human PDE2A1; [2]): 67 nM
Cc1nc(C(=O)NC(C)(c2ccc(S(F)(F)(F)(F)F)cc2)C(C)C)cc(=O)[nH]1 (racemic) [Example 619, N-{1,2-dimethyl-1-[4-(pentafluoro-λ^6-sulfanyl)phenyl]propyl}-2-methyl-6-oxo-1,6-dihydropyrimidine-4-carboxamide]	67	Ki (Rhesus PDE2A3; Rhesus PDE2, Lab B, read-out: Rhesus PDE2 Ki (nM) - Lab B): 62 nM
Cc1nc(C(=O)NC(C)c2ccc(C(C)C)cc2)cc(=O)[nH]1 (single isomer, unassigned) [Example 305, (R)- or (S)-2-methyl-N-{1-[4-(1-methylethyl)phenyl]ethyl}-6-oxo-1,6-dihydropyrimidine-4-carboxamide]		Ki (Rhesus PDE2A3; [1]): 26 nM; Ki (human PDE2A1; [2]): 20 nM
Cc1nc(C(=O)NC(C)c2ccc(-c3ccccc3)cc2)cc(=O)[nH]1 (single isomer, unassigned) [Example 307, (R)- or (S)-N-(1-biphenyl-4-ylethyl)-2-methyl-6-oxo-1,6-dihydropyrimidine-4-carboxamide]		Ki (Rhesus PDE2A3; [1]): 17 nM; Ki (human PDE2A1; [2]): 16 nM
C[C@](CO)(NC(=O)c1cc(=O)[nH]c(-c2ccccc2)n1)c1ccc(C(F)(F)F)cc1 [Example 642, N-{(1S)-2-hydroxy-1-methyl-1-[4-(trifluoromethyl)phenyl]ethyl}-6-oxo-2-phenyl-1,6-dihydropyrimidine-4-carboxamide]	4.8	
C[C@](CO)(NC(=O)c1cc(=O)[nH]c(-c2ccccc2)n1)c1ccc(C(F)(F)F)cc1Cl [Example 643, N-{(1S)-1-[2-chloro-4-(trifluoromethyl)phenyl]-2-hydroxy-1-methylethyl}-6-oxo-2-phenyl-1,6-dihydropyrimidine-4-carboxamide]	0.5	
Cc1nc(C(=O)N[C@@H](c2ccc(C(F)F)c(F)c2)C(C)(C)C)cc(=O)[nH]1 [Example 646, N-{(1R)-1-[4-(difluoromethyl)-3-fluorophenyl]-2,2-dimethylpropyl}-2-methyl-6-oxo-1,6-dihydropyrimidine-4-carboxamide]	15	
Cc1nc(C(=O)N[C@@H](c2ccc(C(F)F)c(F)c2)C(C)C)cc(=O)[nH]1 [Example 650, N-{(1R)-1-[4-(difluoromethyl)-3-fluorophenyl]-2-methylpropyl}-2-methyl-6-oxo-1,6-dihydropyrimidine-4-carboxamide]	33	
CC[C@@H](NC(=O)c1cc(=O)[nH]c(C)n1)c1ccc(C(F)F)c(F)c1 [Example 653]	148	
Cc1nc(C(=O)NC(C)(C)c2ccc(C(F)F)c(F)c2)cc(=O)[nH]1 [Example 654, N-{1-[4-(difluoromethyl)-3-fluorophenyl]-1-methylethyl}-2-methyl-6-oxo-1,6-dihydropyrimidine-4-carboxamide]	72	
Cc1nc(C(=O)NC2(c3ccc(C(F)F)c(F)c3)CC2)cc(=O)[nH]1 [Example 655, N-{l-[4-(difluoromethyl)-3-fluorophenyl]cyclopropyl}-2-methyl-6-oxo-1,6-dihydropyrimidine-4-carboxamide]	64	
Cc1nc(C(=O)NC(C)(C)c2cc(F)c(C(F)(F)F)cc2Cl)cc(=O)[nH]1 [Example 659, N-{1-[2-chloro-5-fluoro-4-(trifluoromethyl)phenyl]-1-methylethyl}-2-methyl-6-oxo-1,6-dihydropyrimidine-4-carboxamide]	139	
Cc1nc(C(=O)N[C@@H](c2ccc(C(F)F)cc2F)C(C)(C)C)cc(=O)[nH]1 [Example 661, N-{(1R)-1-[4-(difluoromethyl)-2-fluorophenyl]-2,2-dimethylpropyl}-2-methyl-6-oxo-1,6-dihydropyrimidine-4-carboxamide]	6.6	
Cc1nc(C(=O)N[C@H](C)c2ccc(S(F)(F)(F)(F)F)cc2F)cc(=O)[nH]1 [Example 672, N-(1-(2-fluoro-4-(pentafluorothio)phenyl)ethyl)-2-methyl-6-oxo-1,6-dihydropyrimidine-4-carboxamide]	> 2960	
Cc1nc(C(=O)N[C@H](C)c2ccc(S(F)(F)(F)(F)F)cc2F)cc(=O)[nH]1 [Example 673, N-(1-(2-fluoro-4-(pentafluorothio)phenyl)ethyl)-2-methyl-6-oxo-1,6-dihydropyrimidine-4-carboxamide]	32	
C[C@@H](NC(=O)c1cc(=O)[nH]c(-c2ncco2)n1)c1ccc(C(F)(F)F)cc1 [Example 675, (R)-2-(oxazol-2-yl)-6-oxo-N-(1-(4-(trifluoromethyl)phenyl)ethyl)-1,6-dihydropyrimidine-4-carboxamide]	234	
Cc1cnc(-c2nc(C(=O)N[C@H](C)c3ccc(C(F)(F)F)cc3)cc(=O)[nH]2)o1 [Example 676, (R)-2-(5-methyloxazol-2-yl)-6-oxo-N-(1-(4-(trifluoromethyl)phenyl)ethyl)-1,6-dihydropyrimidine-4-carboxamide]	478	
Cc1nc(C(=O)NC2(c3ccc(C(F)(F)F)cc3)CC2(C)C)cc(=O)[nH]1 (stereo not shown) [Example 681, N-(2,2-dimethyl-1-(4-(trifluoromethyl)phenyl)cyclopropyl)-2-methyl-6-oxo-1,6-dihydropyrimidine-4-carboxamide]	7	
Cc1nc(C(=O)N[C@@H](c2ccc(C(F)(F)F)c(F)c2)C(C)(C)O)cc(=O)[nH]1 [Example 723, N-{(1S)-1-[3-fluoro-4-(trifluoromethyl)phenyl]-2-hydroxy-2-methylpropyl}-2-methyl-6-oxo-1,6-dihydropyrimidine-4-carboxamide]	8.6	
Cc1nc(C(=O)N[C@@H](c2ccc(OC(F)(F)F)cc2)C(C)(C)O)cc(=O)[nH]1 [Example 724, N-{(1S)-2-hydroxy-2-methyl-1-[4-(trifluoromethoxy)phenyl]propyl}-2-methyl-6-oxo-1,6-dihydropyrimidine-4-carboxamide]	3.1	

Now from value to compound, other results behind:

Ki (human PDE2A1; [3]) [nM]	SMILES	also measured
7.3	Cc1nc(C(=O)N[C@@H](c2ccc(C(F)F)cc2)C(C)(C)C)cc(=O)[nH]1 [Example 644, N-{(1R)-1-[4-(difluoromethyl)phenyl]-2,2-dimethylpropyl}-2-methyl-6-oxo-1,6-dihydropyrimidine-4-carboxamide]	
25	Cc1nc(C(=O)N[C@@H](c2ccc(C(F)F)cc2)C2(C)CC2)cc(=O)[nH]1 [Example 645, N-[(R)-[4-(difluoromethyl)phenyl](1-methylcyclopropyl)methyl]-2-methyl-6-oxo-1,6-dihydropyrimidine-4-carboxamide]	
52	Cc1nc(C(=O)N[C@@H](c2ccc(C(F)F)c(F)c2)C2(C)CC2)cc(=O)[nH]1 [Example 647, N-[(R)-[4-(difluoromethyl)-3-fluorophenyl](1-methylcyclopropyl)methyl]-2-methyl-6-oxo-1,6-dihydropyrimidine-4-carboxamide]	
34	Cc1nc(C(=O)N[C@@H](c2ccc(C(F)F)cc2)C(C)C)cc(=O)[nH]1 [Example 648, N-{(1R)-1-[4-(difluoromethyl)phenyl]-2-methylpropyl}-2-methyl-6-oxo-1,6-dihydropyrimidine-4-carboxamide]	
47	Cc1nc(C(=O)N[C@@H](c2ccc(C(F)F)cc2)C2CC2)cc(=O)[nH]1 [Example 649, N-{(1R)-cyclopropyl[4-(difluoromethyl)phenyl]methyl}-2-methyl-6-oxo-1,6-dihydropyrimidine-4-carboxamide]	
109	Cc1nc(C(=O)N[C@@H](c2ccc(C(F)F)c(F)c2)C2CC2)cc(=O)[nH]1 [Example 651, N-{(R)-cyclopropyl[4-(difluoromethyl)-3-fluorophenyl]methyl}-2-methyl-6-oxo-1,6-dihydropyrimidine-4-carboxamide]	
138	CC[C@@H](NC(=O)c1cc(=O)[nH]c(C)n1)c1ccc(C(F)F)cc1 [Example 652, N-{(1R)-1-[4-(difluoromethyl)phenyl]propyl}-2-methyl-6-oxo-1,6-dihydropyrimidine-4-carboxamide]	
111	Cc1nc(C(=O)N[C@H](C)c2ccc(C(F)F)cc2)cc(=O)[nH]1 [Example 656, N-{(1R)-1-[4-(difluoromethyl)phenyl]ethyl}-2-methyl-6-oxo-1,6-dihydropyrimidine-4-carboxamide]	
133	Cc1nc(C(=O)N[C@H](C)c2ccc(C(F)F)c(F)c2)cc(=O)[nH]1 [Example 657, N-{(1R)-1-[4-(difluoromethyl)-3-fluorophenyl]ethyl}-2-methyl-6-oxo-1,6-dihydropyrimidine-4-carboxamide]	
3.8	Cc1nc(C(=O)N[C@@H](c2ccc(C3CC3)cc2)C2(C)CC2)cc(=O)[nH]1 [Example 658, N-[(R)-(4-cyclopropylphenyl)(1-methylcyclopropyl)methyl]-2-methyl-6-oxo-1,6-dihydropyrimidine-4-carboxamide]	
54	Cc1nc(C(=O)NC2(c3ccc(C(F)F)cc3)CC2)cc(=O)[nH]1 [Example 660, N-{1-[4-(difluoromethyl)phenyl]cyclopropyl}-2-methyl-6-oxo-1,6-dihydropyrimidine-4-carboxamide]	
